SMILES strings stand for the structures.

The term melting point denotes the temperature of the solid-liquid transition.

In the case of `CC(C)(C)OC(=O)N1CCC(CCOc2ccc(C=NO)cc2)CC1`, the melting point lay within 114 to 116 °C. Turning to `COC(=O)c1cc(C(=O)OC)n(-c2ccc(N)cc2C(=O)c2ccccc2)n1`, the melting point was 171 to 172 °C. In turn, `CC(C)C[C@H](O)[C@H](O)[C@H](Cc1ccccc1)NC(=O)OC(C)(C)C` registered a melting point of 128 to 130 °C. As for `CSC(=S)NCCNC(C)=O`, the figure is 139 to 140 °C; as for `CCOC(=O)CCCn1c(=O)n(CCN2CCN(c3ccccc3OC)CC2)c(=O)c2cscc21`, 108 to 110 °C. For `CCCCOc1cc(C(=O)O)cc(NC=O)c1C(=O)c1ccccc1`, the melting point was 180 to 183 °C.

On to `O=[N+]([O-])c1cc(Br)ccc1N1CCc2cc(Br)ccc21`, for which the melting point lay within 150 to 152 °C.

Consider `CS(=O)(=O)OCCCn1cc(C2=C(c3ccccc3[N+](=O)[O-])C(=O)NC2=O)c2ccccc21`, for which the melting point lay in the range of 177 to 178 °C. Take `CCn1c(C=O)c(-c2ccc(F)cc2)c(C(C)C)c1C(=O)O`: the melting point came out at 182 °C. To `CCCOC(=O)C1=C(N)NC(C)=C(C#N)C1c1cccc2ncc(-c3ccccc3)cc12` (stereo unspecified) belongs 237 °C.

Turning to `Cc1c(Cc2ccccc2)c(=O)n(Cc2ccccc2)c2cc(OCC(N)=O)cc(OCC(N)=O)c12`, the melting point lay within 252 to 253 °C. Turning to `CCCCCCCCCCCCCCCCCCN(CCCCCCCCCCCCCCCCCC)C(=O)N1CCN(C)CC1`, the melting point fell in the range of 46 to 47 °C. The molecule `CCOC(=O)c1cnn2c(C=O)c(Cc3cccc(F)c3C)c(-c3ccccc3)c2c1Cl` gave a melting point of 110 to 111 °C. On to `CCc1nc2c(N)nc3ccccc3c2n1CC(C)(C)OCCS(C)(=O)=O`, for which the melting point was 206 to 209 °C. Take `COC(=O)c1ccc(NC(=O)Nc2ccc(OC)c(C34CC5CC(CC(C5)C3)C4)c2)cc1`: the melting point lay in the range of 223 to 224 °C. Consider `COc1cc(NC(=O)c2c(Cl)cccc2Cl)c2ncccc2c1`, for which the melting point lay within 180 to 182 °C. Consider `NC1(c2ccccc2Cl)C(=O)Nc2ccc(Cl)cc21` (stereo unspecified), for which the melting point fell in the range of 174 to 176 °C.

`COc1ccc(N2CCN(C)CC2)cc1-c1cnn2c(N)c(-c3cccc(Cl)c3)c(C)nc12` came in with a melting point of 116 to 121 °C. `O=CCCNC(=O)CN1CCN(CC(=O)O)CCN(CC(=O)O)CCN(CC(=O)O)CC1` displayed a melting point of 115 to 120 °C. As to `C=CCN1C2CCC1C1CCC2N1C(c1ccc(C(=O)NC2CCCCC2)cc1)c1cccc(OC)c1` (stereo unspecified), the melting point was 58 to 60 °C. To `CC(O)Cc1cc([N+](=O)[O-])cc([N+](=O)[O-])c1N` (stereo unspecified) belongs 168 °C.

Turning to `C[C@@H]1N=C(c2ccccc2)c2cc(I)ccc2N(C)C1=O`, the melting point was 115 °C. `COc1cccnc1C(c1cc(F)ccc1F)S(=O)(=O)c1ccc(Cl)cc1` (stereo unspecified) showed a melting point of 184 to 185 °C. Regarding `OCc1nc(-c2ccc3c(c2)Nc2ccccc2S3)cs1`, the melting point lay in the range of 120 to 122 °C.

`COC(=O)/C=C/c1ccc(NC(C)=O)nc1` returned a melting point of 172 to 200 °C.

`CS(=O)(=O)c1ccc(-n2nc(C(F)(F)F)cc2-c2ccc(-c3ncco3)cc2)cc1` yielded a melting point of 190 to 192 °C. As for `O=C(/C=C/c1ccc2cc[nH]c2c1)CC(=O)/C=C/c1ccc(OCc2ccccn2)cc1O`, the figure is 188 to 190 °C.

Consider `COc1ccc(OCCOc2ccc(C(=O)C(=O)O)cc2)cc1`, for which the melting point lay within 138 to 139 °C. To `CCNc1nc(C)c(-c2ccnc(Nc3cc(Cl)c(N4CCOCC4)c(Cl)c3)n2)s1` belongs over 300 °C; to `O=C(COc1ccc(Cl)cc1Cl)OCCOC(=O)c1cc(Oc2ccc(C(F)(F)F)cc2Cl)ccc1[N+](=O)[O-]`, 111 to 118 °C; to `Cn1ncc(-c2ccccn2)c1S(N)(=O)=O`, 113 to 114 °C. `CCC#CC1(C(F)(F)F)OC(=O)Nc2ccc(OC)cc21` (stereo unspecified) came in with a melting point of 161 to 162 °C. `Cc1csc(N)c1S(=O)(=O)NC(=S)NC(C)C` gave a melting point of 118 to 120 °C.

In turn, `COCCNC(=O)c1cc(-c2ccccc2)c(=O)[nH]c1-c1c(Cl)cccc1C#N` came in with a melting point of 252 to 255 °C. As for `N#CC1=C(c2ccccc2)Nc2n[nH]cc2C1c1cccc(C#N)c1Br` (stereo unspecified), the melting point is over 270 °C. Take `CCCN(CCC)C1CNc2c(cc(Br)cc2[N+](=O)[O-])C1` (stereo unspecified): the melting point fell in the range of 88 to 91 °C. Molecule `CCN1C=C(C(=O)O)C(=O)CC1c1cccc(Cl)c1` (stereo unspecified) registered a melting point of 143 to 145 °C. `CC1CCC(C(C)C)C(OC(=O)C2C(=O)N(Cc3ccc(Br)cc3F)C(=O)c3cccn32)C1` (stereo unspecified) had a melting point of 98 to 99 °C. As for `CC1Cc2c(c3ccccc3n2C(=O)c2ccccc2)C(C)C1C(=O)O` (stereo unspecified), the melting point lay within 142 to 145 °C. For the molecule `CS(=O)(=O)c1ccc(C(CC2CCCC2)C(=O)Nc2nc3ccccc3[nH]2)cc1C#N` (stereo unspecified), the melting point was 148 to 152 °C.

On to `O=C(O)C(=O)CC(=O)c1cccn1Cc1cccc2ccccc12`, for which the melting point lay within 172 to 174 °C. With `COc1cccc([C@H]2O[C@H](CC#N)C(=O)N(CC(C)(C)C)c3ccc(Cl)cc32)c1OC`, the melting point lay in the range of 193 to 194 °C. Molecule `O=c1cc(OCc2ccccc2)c2ccc(O)cc2o1` displayed a melting point of 234 °C. `CCC(C)COC(=O)c1ccc(-c2ccc(O)cc2)cc1` (stereo unspecified) showed a melting point of 112 to 113 °C.

Consider `Fc1ccc(-c2nc3occn3c2-c2ccnc(N[C@H]3CN4CCC3CC4)n2)cc1`, for which the melting point lay in the range of 217 to 218 °C. As for `O=C(O)c1ccc(C(=O)c2cccnc2)cc1`, the figure is 266 to 267 °C. In the case of `Cc1[nH]c(-c2ccc(F)cc2)c(N)c1C(=O)c1ccccc1`, the melting point was 209 to 210 °C.

In turn, `CN(C)C(=S)Sc1cc(=O)n(Cc2ccccc2)s1` yielded a melting point of 184 to 186 °C.

`CC(C)(O)C(CS(=O)(=O)c1ccccc1)C(F)(F)F` (stereo unspecified) registered a melting point of 59 to 60 °C. To `CN(C)c1ccc(C(=O)NC2CCN(C(c3ccccc3)c3ccccc3)CC2)c(N)c1` belongs 118 °C; to `N#Cc1ccc(C#N)c(Sc2ccccc2)c1`, 106 °C. Turning to `N#Cc1cc(F)c(-n2nc3ccc(Cl)cn3c2=O)cc1F`, the melting point was over 230 °C. As for `CN1Cc2c(C#N)ncn2-c2ccsc2C1=O`, the figure is 206 to 208 °C; as for `Nc1nc2c(ncn2CCOCP(=O)(O)O)c(=O)[nH]1`, over 260 °C.

Molecule `CS(=O)(=O)N(Cc1cccnc1)c1ccc(Cl)cc1` had a melting point of 138 to 140 °C. The molecule `COC(=O)COc1ccc(C(=O)NC(=O)Nc2ccc(C(N)=S)cc2)cc1` displayed a melting point of 215 to 218 °C. The molecule `Cc1[nH]nc(C(=O)NC2CCCC2)c1NC(=O)c1cnccn1` returned a melting point of 170 to 171 °C. To `FC(COC1CCC(Nc2ncnc3[nH]ncc23)CC1F)c1ccccc1` (stereo unspecified) belongs 204 to 205 °C; to `Nc1cccc(CC(=O)NCc2ccccc2Br)c1`, 110 to 112 °C; to `COC(=O)C1=C(C)NC(C)=C(C(=O)O)C1c1ccccc1C(F)(F)F` (single isomer, unassigned; (+)), 109 °C. Molecule `CNc1nc(N)nc2cc(-c3ccccc3S(=O)(=O)NC)ccc12` displayed a melting point of 316 to 317 °C. Molecule `CC1=CC(OC(=O)C=Cc2ccc(O)cc2)C(O)C(C)(C)CC1=O` (stereo unspecified) returned a melting point of 176 to 177 °C. In the case of `Cc1cc(Oc2ccc(-c3ccn(CC4CC4)c(=O)c3C(F)(F)F)cc2F)cc(C)n1`, the melting point is 162 °C. The molecule `CCSc1cc(C)nc(SCC)c1NC(=O)CN1CCN(CCSc2nc3cccc(C(F)(F)F)c3o2)CC1` returned a melting point of 107 to 108 °C. For the molecule `CCC(CC)c1ccc(Cl)c2nc3n(c12)CCCCN3c1ncc(C(C)=O)cc1C`, the melting point was determined as 142 °C. As for `O=c1cc(-c2cc3ccccc3[nH]2)oc2ccccc12`, the figure is 157 to 158 °C; as for `COC(=O)c1ccc(N(C(=O)c2ccccc2-c2ccccc2)C(=O)c2ccccc2-c2ccccc2)nc1`, 180 to 188 °C. As for `Cc1ccc(S(=O)(=O)N[C@@H]2CCCC[C@H]2OCC(=O)O)cc1` (relative stereo), the figure is 56 to 58 °C; as for `CC(=O)N1C(=O)N(COCc2ccccc2)C(=O)C12c1ccccc1N(CC(C)C)C(=O)N2C` (stereo unspecified), 70 to 72 °C; as for `COc1cc(C)c(S(=O)(=O)N(C)C)cc1[N+](=O)[O-]`, 130 to 132 °C. For the molecule `CCCCCCCCCCCCCCCCSCC(CO)OC(=O)NC` (stereo unspecified), the melting point lay in the range of 53 to 55 °C. `CC(C)(C)OC(=O)NC(Cc1ccccc1)C(O)CNCC(O)C(Cc1ccc(OCc2ccccc2)cc1)NC(=O)OCc1ccccc1` (stereo unspecified): the melting point is 154 to 156 °C. As for `CCOP(=S)(CNSCNC(=O)ON=C(C)SC)OCC`, the figure is 72 to 73 °C; as for `COc1cc(Nc2c(C#N)cnc3cc(OCC4CCCCO4)c(OC)cc23)c(Cl)cc1Cl` (stereo unspecified), 193 to 196 °C. Turning to `CC(=O)Oc1ccc(-c2cnc(NS(=O)(=O)Cc3ccccc3)c(Cc3ccccc3)n2)cc1`, the melting point is 240 to 241 °C. As for `C=C(C)C(=O)Oc1c(C(C)c2cc(C(C)(C)CC)cc(C(C)(C)CC)c2O)cc(C(C)(C)CC)cc1C(C)(C)CC` (stereo unspecified), the figure is 103 to 105 °C. In turn, `COc1ccc(C2CNC(=O)O2)cc1OC1CCCC1` (stereo unspecified) yielded a melting point of 111 to 112 °C. As for `Cc1ncnc2c1ncn2[C@H](C)[C@](O)(Cn1cncn1)c1ccc(F)cc1F`, the figure is 200 to 201 °C; as for `CC(=O)OCC1OC(OC2C(COC(C)=O)OC(Oc3ccc([N+](=O)[O-])cc3)C(OC(C)=O)C2OC(C)=O)C(OC(C)=O)C(OC(C)=O)C1OC(C)=O` (stereo unspecified), 165 to 170 °C.

Molecule `CS(=O)(=O)c1ccc(-c2nc(C(F)(F)F)[nH]c2-c2ccc(F)c(F)c2)cc1` displayed a melting point of 249 to 252 °C. `CS(=O)c1nc(O)nn1-c1ccccc1` (stereo unspecified) showed a melting point of 180 to 182 °C. With `C#CC(C)(O)C1CCC2C3CC=C4CC(OC)CCC4(C)C3CCC21C` (stereo unspecified), the melting point is 175 to 176 °C. Molecule `Cc1ccc(O)c(Cn2ccnc2)n1` showed a melting point of 153 to 155 °C.

Molecule `CCCCC(CC(=O)O)C(=O)O` (stereo unspecified) gave a melting point of 82 to 83 °C.

`CC(C)c1cccc2cc3ccccc3cc12` displayed a melting point of 36 to 36.5 °C. As for `CSP(=S)(C1CCCCC1)C1CCCCC1`, the figure is 75 to 75.5 °C.

The record behind these values is a melting point compilation (Tetko et al.; mined from patent text by program, amines drawn as free bases though some values may be those of a salt).
